Assay results as given in patent US9670227B2, “Thienopyrimidine derivatives, a process for their preparation and pharmaceutical compositions containing them” (LES LABORATOIRES SERVIER, priority 2013, dated 2017).
Like-named read-outs stand apart in the source and are kept apart here.

Key:
[1] = system: H929 multiple myeloma tumour line; test: In vitro cytotoxicity, Microculture Tetrazolium Assay; assay type: cell-based
Protocol: The cytotoxicity studies were carried out on the H929 multiple myeloma tumour line.
The cells are distributed onto microplates and exposed to the test compounds for 48 hours.

[2] = target: Mcl-1 protein (UniProtKB primary accession number: Q07820) (Homo sapiens, UniProt Q07820); test: Inhibition of Mcl-1 by fluorescence polarisation, Method 1; assay type: binding; details: read-out: IC50 (M) Mcl-1 FP
Chain of Mcl-1 protein (Q07820 whole entry): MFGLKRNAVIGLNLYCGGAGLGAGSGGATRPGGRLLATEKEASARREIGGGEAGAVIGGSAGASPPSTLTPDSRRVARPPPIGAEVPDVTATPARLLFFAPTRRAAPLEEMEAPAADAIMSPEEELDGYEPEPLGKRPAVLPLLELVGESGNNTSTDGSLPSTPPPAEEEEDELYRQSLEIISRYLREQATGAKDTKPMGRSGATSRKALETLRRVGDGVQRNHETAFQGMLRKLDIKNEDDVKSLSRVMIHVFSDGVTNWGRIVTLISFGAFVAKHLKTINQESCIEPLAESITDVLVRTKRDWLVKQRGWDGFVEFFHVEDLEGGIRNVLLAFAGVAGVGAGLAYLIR
Method in brief: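 Compounds were tested as 11-point serial dilutions at 5% final DMSO against 5 nM Mcl-1 with 1 nM fluorescein-labelled ligand in 10 mM HEPES, 150 mM NaCl, 0.05% Tween 20, pH 7.4. Relative binding potency was read by fluorescence polarisation.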

[3] = Homo sapiens, NCI-H929, 48 h, H929 cells, 48 hours exposure, MTT, read-out: IC50 (μM) MTT H929
[4] = fluorescence polarisation test, Method 2 values are underlined in the patent (underlining not visible here)
[5] = fluorescence polarisation, Method 1, or Method 2

IC50 [2, 4] [M] | IC50 [2, 5] [M] | SMILES | IC50 [1, 3] [µM] | IC50 ([1]; H929 cells, 48 hours exposure, MTT, read-out: IC50 (μM) MTT H929) [µM] | IC50 ([1]; Homo sapiens, NCI-H929, 48 h, read-out: IC50 (μM) MTT H929, H929 cells, 48 hours exposure, MTT) [µM]
6e-09 |  | CNCCOc1ccc(-c2c(-c3ccco3)sc3ncnc(OC(Cc4ccccc4OC)C(=O)O)c23)c(C)c1Cl [Example 331, (2R)-2-{[(5Sa)-5-{3-chloro-2-methyl-4-[2-(methylamino)ethoxy]phenyl}-6-(furan-2-yl)thieno[2,3-d]pyrimidin-4-yl]oxy}-3-(2-methoxyphenyl)propanoic acid] | 0.394 |  | 
1e-08 |  | COc1ccccc1CC(Oc1ncnc2sc(-c3ccco3)c(-c3ccc(OCC4CN(C)CCN4C)c(Cl)c3C)c12)C(=O)O [Example 313, (2R)-2-{[(5Sa)-5-{3-chloro-4-[(1,4-dimethylpiperazin-2-yl)methoxy]-2-methylphenyl}-6-(furan-2-yl)thieno[2,3-d]pyrimidin-4-yl]oxy}-3-(2-methoxyphenyl)propanoic acid] | 0.886 |  | 
 | 1e-08 | COc1cc(F)ccc1CC(Oc1ncnc2sc(-c3ccc(F)o3)c(-c3ccc(OCCN4CCN(C)CC4)c(Cl)c3C)c12)C(=O)O [Example 692, (2R)-2-{[(5Sa)-5-{3-chloro-2-methyl-4-[2-(4-methylpiperazin-1-yl)ethoxy]phenyl}-6-(5-fluorofuran-2-yl)thieno[2,3-d]pyrimidin-4-yl]oxy}-3-(4-fluoro-2-methoxyphenyl)propanoic acid] | 0.079 |  | 
 | 1.3e-07 | Cc1cscc1-c1sc2ncnc(O[C@H](Cc3ccccc3)C(=O)O)c2c1-c1ccc(OCCN2CCN(C)CC2)c(Cl)c1C [Example 516, (2R)-2-{[(5Sa)-5-{3-chloro-2-methyl-4-[2-(4-methylpiperazin-1-yl)ethoxy]phenyl}-6-(4-methylthiophen-3-yl)thieno[2,3-d]pyrimidin-4-yl]oxy}-3-phenylpropanoic acid] |  | 5.07 | 
7.3e-09 |  | Cc1c(-c2c(-c3ccc(F)cc3)sc3ncnc(OC(Cc4ccccc4OCc4ccnc(COc5ccccc5)n4)C(=O)O)c23)ccc(OCCN2CCN(C)CC2)c1Cl [Example 46, (2R)-2-{[(5Sa)-5-{3-chloro-2-methyl-4-[2-(4-methylpiperazin-1-yl)ethoxy]phenyl}-6-(4-fluorophenyl)thieno[2,3-d]pyrimidin-4-yl]oxy}-3-(2-{[2-(phenoxymethyl)pyrimidin-4-yl]methoxy}phenyl)propanoic acid] | 0.024 |  | 
 | 4e-08 | COc1ccccc1C[C@@H](Oc1ncnc2sc(-c3ccc(F)cc3)c(-c3ccc(CCCN4CCN(C)CC4)c(Cl)c3C)c12)C(=O)O (single isomer, unassigned) [Example 654] |  |  | 2.08
4.3e-09 |  | CCN1CCN(CCOc2ccc(-c3c(-c4ccco4)sc4ncnc(OC(Cc5ccccc5OC)C(=O)O)c34)c(C)c2Cl)CC1 [Example 322, (2R)-2-{[(5Sa)-5-{3-chloro-4-[2-(4-ethylpiperazin-1-yl)ethoxy]-2-methylphenyl}-6-(furan-2-yl)thieno[2,3-d]pyrimidin-4-yl]oxy}-3-(2-methoxyphenyl)propanoic acid] | 0.113 |  | 
 | 9.48e-10 | COc1cc(-c2nccc(COc3ccccc3CC(Oc3ncnc4sc(-c5ccc(F)cc5)c(-c5ccc(OCCN6CCN(C)CC6)c(Cl)c5C)c34)C(=O)O)n2)ccn1 [Example 735, (2R)-2-{[(5Sa)-5-{3-chloro-2-methyl-4-[2-(4-methylpiperazin-1-yl)ethoxy]phenyl}-6-(4-fluorophenyl)thieno[2,3-d]pyrimidin-4-yl]oxy}-3-(2-{[2-(2-methoxypyridin-4-yl)pyrimidin-4-yl]methoxy}phenyl)propanoic acid] | 0.007 |  | 
 | 1.1e-08 | COc1ccccc1CC(Oc1ncnc2sc(-c3cccc(F)c3F)c(-c3ccc(OCCN4CCN(C)CC4)c(Cl)c3C)c12)C(=O)O [Example 560, (2R)-2-{[(5Sa)-5-{3-chloro-2-methyl-4-[2-(4-methylpiperazin-1-yl)ethoxy]phenyl}-6-(2,3-difluorophenyl)thieno[2,3-d]pyrimidin-4-yl]oxy}-3-(2-methoxyphenyl)propanoic acid] | 0.128 |  | 
 | 3.6e-08 | Cc1csc(-c2sc3ncnc(OC(Cc4ccccc4)C(=O)O)c3c2-c2ccc(OCCN3CCN(C)CC3)c(Cl)c2C)c1 [Example 495, (2R)-2-{[(5Sa)-5-{3-chloro-2-methyl-4-[2-(4-methylpiperazin-1-yl)ethoxy]phenyl}-6-(4-methylthiophen-2-yl)thieno[2,3-d]pyrimidin-4-yl]oxy}-3-phenylpropanoic acid] | 1.19 |  | 
 | 1.32e-09 | Cc1c(-c2c(-c3ccc(F)cc3)sc3ncnc(OC(Cc4ccccc4OCc4ccnc(-c5ccccc5C(F)(F)F)n4)C(=O)O)c23)ccc(OCCN2CCN(C)CC2)c1Cl [Example 727, (2R)-2-{[(5Sa)-5-{3-chloro-2-methyl-4-[2-(4-methylpiperazin-1-yl)ethoxy]phenyl}-6-(4-fluorophenyl)thieno[2,3-d]pyrimidin-4-yl]oxy}-3-[2-({2-[2-(trifluoromethyl)phenyl]pyrimidin-4-yl}methoxy)phenyl]propanoic acid] | 0.013 |  | 
 | 4.9e-09 | CCN1CCN(CCOc2ccc(-c3c(-c4ccco4)sc4ncnc(OC(Cc5ccccc5OCCOC)C(=O)O)c34)c(C)c2Cl)CC1 [Example 669, (2R)-2-{[(5Sa)-5-{3-chloro-4-[2-(4-ethylpiperazin-1-yl)ethoxy]-2-methylphenyl}-6-(furan-2-yl)thieno[2,3-d]pyrimidin-4-yl]oxy}-3-[2-(2-methoxyethoxy)phenyl]propanoic acid] | 0.108 |  | 
9.8e-09 |  | Cc1c(-c2c(-c3ccc(F)o3)sc3ncnc(OC(Cc4ccccc4OCc4cc(C(F)(F)F)ccn4)C(=O)O)c23)ccc(OCCN2CCN(C)CC2)c1Cl [Example 159, (2R)-2-{[(5Sa)-5-{3-chloro-2-methyl-4-[2-(4-methylpiperazin-1-yl)ethoxy]phenyl}-6-(5-fluorofuran-2-yl)thieno[2,3-d]pyrimidin-4-yl]oxy}-3-(2-{[4-(trifluoromethyl)pyridin-2-yl]methoxy}phenyl)propanoic acid] | 0.246 |  | 
 | 1.6e-08 | COc1cc(F)cc(-c2sc3ncnc(OC(Cc4ccccc4OC)C(=O)O)c3c2-c2ccc(OCCN3CCN(C)CC3)c(Cl)c2C)c1 [Example 528, (2R)-2-{[(5Sa)-5-{3-chloro-2-methyl-4-[2-(4-methylpiperazin-1-yl)ethoxy]phenyl}-6-(3-fluoro-5-methoxyphenyl)thieno[2,3-d]pyrimidin-4-yl]oxy}-3-(2-methoxyphenyl)propanoic acid] | 0.334 |  | 
 | 5.4e-09 | CC#Cc1sc2ncnc(OC(Cc3ccccc3OCC)C(=O)O)c2c1-c1ccc(OCCN2CCN(C)CC2)c(Cl)c1C [Example 481, (2R)-2-{[(5Sa)-5-{3-chloro-2-methyl-4-[2-(4-methylpiperazin-1-yl)ethoxy]phenyl}-6-(prop-1-yn-1-yl)thieno[2,3-d]pyrimidin-4-yl]oxy}-3-(2-ethoxyphenyl)propanoic acid] | 0.643 |  | 
6.3e-09 |  | Cc1c(-c2c(-c3ccco3)sc3ncnc(OC(Cc4ccccc4OCC(F)(F)F)C(=O)O)c23)ccc(OCCN2CCN(C)CC2)c1Cl [Example 221, (2R)-2-{[(5Sa)-5-{3-chloro-2-methyl-4-[2-(4-methylpiperazin-1-yl)ethoxy]phenyl}-6-(furan-2-yl)thieno[2,3-d]pyrimidin-4-yl]oxy}-3-[2-(2,2,2-trifluoroethoxy)phenyl]propanoic acid] | 0.059 |  | 
